# Measurements: patent US20100022574A1, “Methods to Treat Pain Using an Alpha-2 Adrenergic Agonist and an Endothelin Antagonist” (EndogenX, Inc., priority 2008, published 2010)
# Entries after “also recorded” stand apart in the source; their conditions may differ. Structures can show the parent of a compound that is named as a salt. Where two headings read alike, the source gives them in different places.
# Key:
# [1] = test system: rats; details: for analgesic effect of the agent alone (tail flick latency) / AUC0→360 of tail flick latency / effect on morphine analgesia in rats treated with BMS182874 / effect on oxycodone analgesia in rats treated with BMS182874: BMS182874 50 μg icv; for analgesic effect of the agent alone (tail flick latency) / AUC0→360 of tail flick latency: clonidine 1 mg/kg ip; for effect on Morphine analgesia / effect on Oxycodone analgesia: clonidine 1 mg/kg ip or BMS182874 50 μg icv; for effect on Morphine analgesia: morphine 8 mg/kg sc; for effect on Oxycodone analgesia / AUC0→360 of tail flick latency / effect on oxycodone analgesia in rats treated with BMS182874 / effect of antagonist on Clonidine potentiation of Oxycodone analgesia: oxycodone 4 mg/kg sc; for AUC0→360 of tail flick latency: each agent alone: morphine 8 mg/kg sc, Mean±S.E.M., n=6; for effect on morphine analgesia in rats treated with BMS182874: morphine 4 mg/kg sc; for effect of antagonist on Clonidine potentiation of Morphine analgesia / effect of antagonist on Clonidine potentiation of Oxycodone analgesia: idazoxan 2 mg/kg ip or yohimbine 2 mg/kg ip given 15 min before clonidine 1 mg/kg ip
# [2] = Body temperature in mice
# [3] = test system: Male Swiss Webster mice; assay: Tail-flick latency (antinociception) in mice; details: for tail flick latency, fold above vehicle: clonidine 0.3 mg/ml
# [4] = target: μ-opioid receptors (Homo sapiens, UniProt P35372); details: relative to morphine; cited from earlier work
# [5] = target: α2-adrenergic receptors; details: cited from earlier work
# [6] = target: I1-imidazoline receptors; details: cited from earlier work
# [7] = test system: patients after spinal fusion; details: cited from earlier work
# [8] = test system: goats; details: epidural; cited from earlier work
# [9] = test system: healthy volunteers; details: clonidine 0.2 mg p.o., alone or with naloxone; cited from earlier work
# [10] = target: T1, ETA receptors (Homo sapiens, UniProt P25101); details: membrane preparations; read-out: IC50, inhibition of binding of ET-1 to ETA receptors; cited from earlier work
# T1 sequence (P25101 21-427): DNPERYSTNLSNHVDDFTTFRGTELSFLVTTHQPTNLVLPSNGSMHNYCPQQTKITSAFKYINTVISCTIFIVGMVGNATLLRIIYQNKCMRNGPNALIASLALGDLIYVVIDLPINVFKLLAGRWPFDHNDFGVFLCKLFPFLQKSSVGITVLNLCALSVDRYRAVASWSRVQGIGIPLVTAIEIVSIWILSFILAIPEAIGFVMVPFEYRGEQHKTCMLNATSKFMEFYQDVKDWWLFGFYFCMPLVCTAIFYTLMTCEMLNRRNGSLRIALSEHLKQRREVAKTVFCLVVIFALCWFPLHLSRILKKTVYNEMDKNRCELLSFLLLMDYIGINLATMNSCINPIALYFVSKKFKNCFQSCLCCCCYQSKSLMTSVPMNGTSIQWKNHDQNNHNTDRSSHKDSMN
# [11] = target: T2, ETB receptors (Homo sapiens, UniProt P24530); details: membrane preparations; read-out: IC50, inhibition of binding of ET-1 to ETB receptors; cited from earlier work
# T2 sequence (P24530 27-442): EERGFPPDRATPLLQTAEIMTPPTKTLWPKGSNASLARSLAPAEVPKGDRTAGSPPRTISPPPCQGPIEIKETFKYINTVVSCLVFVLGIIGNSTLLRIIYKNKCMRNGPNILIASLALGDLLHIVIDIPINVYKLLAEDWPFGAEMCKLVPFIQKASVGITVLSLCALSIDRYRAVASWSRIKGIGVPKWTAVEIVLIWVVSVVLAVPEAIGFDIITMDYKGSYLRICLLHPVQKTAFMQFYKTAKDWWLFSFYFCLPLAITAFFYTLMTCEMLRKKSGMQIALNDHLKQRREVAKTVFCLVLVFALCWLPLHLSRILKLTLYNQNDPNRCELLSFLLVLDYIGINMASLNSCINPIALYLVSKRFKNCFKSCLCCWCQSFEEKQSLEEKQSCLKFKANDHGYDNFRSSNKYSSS
# [12] = cited from earlier work
# [13] = cited from earlier work; remark: listed apart in the source
# [14] = test system: patients having coronary artery bypass graft surgery; details: cited from earlier work
# Chain of μ-opioid receptors (P35372 whole entry): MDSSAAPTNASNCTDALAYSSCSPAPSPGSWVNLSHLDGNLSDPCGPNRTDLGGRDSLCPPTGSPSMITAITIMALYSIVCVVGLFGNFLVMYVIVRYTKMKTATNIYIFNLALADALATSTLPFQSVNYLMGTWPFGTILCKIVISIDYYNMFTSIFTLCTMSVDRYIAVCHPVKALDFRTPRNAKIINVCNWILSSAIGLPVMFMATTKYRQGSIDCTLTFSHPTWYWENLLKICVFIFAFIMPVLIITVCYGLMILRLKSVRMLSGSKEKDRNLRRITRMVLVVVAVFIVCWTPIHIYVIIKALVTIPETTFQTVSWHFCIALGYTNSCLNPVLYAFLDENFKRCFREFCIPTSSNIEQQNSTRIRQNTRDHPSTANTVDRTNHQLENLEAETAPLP
compound,measurement,setting,value
"Cc1noc(NS(=O)(=O)c2cccc3c(N(C)C)cccc23)c1C [BMS182874, 5-(dimethylamino)-N-(3,4-dimethyl-5-isoxazolyl)-1-naphthalene sulfonamide]",effect on analgesic activity of clonidine,"[1]; rats, BMS182874 50 μg icv 15 min before clonidine 1.0 mg/kg ip",did not affect
same,analgesic effect of the agent alone (tail flick latency),[1]; rats,did not produce any analgesic effect
same,effect on Morphine analgesia,[1]; rats,significantly potentiated; also recorded: Increase
same,effect on Oxycodone analgesia,[1]; rats,potentiated; also recorded: Increase
same,AUC0→360 of tail flick latency,[1]; rats,4.47±1.49 sec.min
same,effect on the fall in temperature induced by clonidine,"[2]; BMS182874 2.0, 10.0, 50.0 μg/kg icv, clonidine 0.3 mg/kg i.p.",did not affect
same,increase in tail flick latency,"[3]; BMS182874 10 μg/kg icv + clonidine 0.3 mg/kg i.p., 1 and 2 hours post treatment, compared to vehicle of FIG. 5A",5 fold
same,increase in tail flick latency,"[3]; BMS182874 10 μg/kg icv + clonidine 0.3 mg/kg i.p., 4 hours post treatment",approximately 3 fold
same,increase in tail flick latency,"[3]; BMS182874 10 μg/kg icv + clonidine 0.3 mg/kg i.p., by 6 hours post treatment",2 fold
same,effect on clonidine analgesia,"[3]; BMS182874 low and high dose (2.0 and 50.0 μg/kg, icv), clonidine 0.3 mg/kg i.p.",moderately potentiated
same,effect on the analgesic effect of clonidine,"[3]; BMS182874 middle dose 10 μg/kg icv, clonidine 0.3 mg/kg i.p.",potentiated
"COc1ccc2c3c1O[C@H]1C(=O)CC[C@@]4(O)[C@@H](C2)N(C)CC[C@]314.Cl [Oxycodone, 4,5α-epoxy-14-hydroxy-3-methoxy-17-methylmorphinan-6-one hydrochloride]",AUC0→360 of tail flick latency,[1]; rats,18.23±2.32 sec.min
same,"affinity to the μ-opioid receptors, times less than morphine",[4],> 20 times
"Clc1cccc(Cl)c1NC1=NCCN1 [Clonidine, N-(2,6-dichlorophenyl)-4,5-dihydro-1H-imidazol-2-amine]",effect on morphine analgesia in rats treated with BMS182874,[1]; clonidine 0.1 mg/kg ip,did not produce an increase in analgesic effect
same,effect on oxycodone analgesia in rats treated with BMS182874,[1]; clonidine 0.1 mg/kg ip,did not produce an increase in analgesic effect
same,effect on morphine analgesia in rats treated with BMS182874,[1]; clonidine 0.3 mg/kg ip,"significant (P=0.016 and P=0.011, respectively) increase"
same,effect on oxycodone analgesia in rats treated with BMS182874,[1]; clonidine 0.3 mg/kg ip,"significant (P=0.02 and P=0.031, respectively) increase"
same,effect on morphine analgesia in rats treated with BMS182874,[1]; clonidine 1.0 mg/kg ip,"significant (P=0.016 and P=0.011, respectively) increase"
same,effect on oxycodone analgesia in rats treated with BMS182874,[1]; clonidine 1.0 mg/kg ip,"significant (P=0.02 and P=0.031, respectively) increase"
same,analgesic effect of the agent alone (tail flick latency),[1]; rats,produced significant (P=0.00086) analgesia
same,effect on Morphine analgesia,[1]; rats,significantly potentiated; also recorded: Increase
same,effect on Oxycodone analgesia,[1]; rats,potentiated; also recorded: Increase
same,AUC0→360 of tail flick latency,[1]; rats,16.62±1.61 sec.min
same,Ki,[5],3.8 nM
same,Ki,[6],1 nM
same,pain score (visual analog scale) after clonidine,"[7]; clonidine 5 micrograms/kg i.v. in 1st h then 0.3 microgram/kg/h for 11 h, mean±standard error",26±3 mm
same,change in mean arterial pressure,[7]; clonidine group at T11,−26±2%
same,pain score (visual analog scale) before clonidine,"[7]; clonidine group, starting value, mean±standard error",42±5 mm
same,mean arterial pressure,[7]; clonidine group,74±2 mmHg
same,"morphine requirement, dose for each patient","[7]; clonidine group, i.m. morphine on demand",3.8 ± 1 mg
same,duration of antinociception,[8],5.5 h
same,duration of increased subjective and objective pain thresholds,[9],at least 4 hours
same,effect on body temperature,"[2]; clonidine 0.3, 1.0, 3.0 mg/kg i.p., all doses",decreased body temperature
same,AUC0→240 min from tail flick latency,"[3]; Example 3, mice, morphine 4 mg/kg s.c., clonidine 2 mg/kg i.p. 30 min before morphine or vehicle, mean±SEM, N=6",68.4±12.3
same,AUC of tail flick latency compared to control mice,"[3]; Example 5 study 2, clonidine 2 mg/kg i.p. alone, sulfisoxazole 1000 mg/kg oral alone",produced an increase in AUC
same,increase in tail flick latency,"[3]; clonidine 0.3 mg/kg plus CMC, 2 hours post injury",5 fold
same,tail flick latency at late time,"[3]; clonidine 0.3 mg/kg plus CMC, by 6 hours",decreased to approximately the level of vehicle treated animals
same,"tail flick latency, fold above vehicle",[3]; at 3 hours,approximately 3 fold
same,"tail flick latency, fold above vehicle",[3]; by 5 hours,2.5 fold
same,"tail flick latency, fold above vehicle",[3]; immediately after injury,up to 4 fold
same,"tail flick latency, fold over vehicle","[3]; clonidine 1.0 mg/kg i.p., at approximately 6 hours",3 fold
same,"tail flick latency, fold over vehicle","[3]; clonidine 1.0 mg/kg i.p., up to approximately 3 hours",approximately 5 fold
same,enhancement of the antinociception produced by morphine,"[3]; clonidine 2 mg/kg i.p. + morphine 4 mg/kg s.c., AUC",42%
same,"tail flick latency, fold over vehicle","[3]; clonidine 3.0 mg/kg i.p., all time points measured",approximately 5 fold
"4-amino-N-(3,4-dimethyloxazol-5-yl)-benzenesulfonamide [Sulfisoxazole]",IC50,[10],600 nM
same,IC50,[11],22000 nM
same,solubility,[12],highly soluble
same,"average steady state plasma concentration, mean","[13]; 500 mg oral four times a day, healthy volunteers",63.4 µg/mL
same,drug excreted in urine by kidney,[13]; in 24 hours,95%
same,binding to plasma proteins,[13]; in vivo,extensively bound to plasma proteins
same,maximum blood level (adverse reactions more frequent above),[13]; in vivo,≤ 200 µg/mL
same,potentiation of antinociception produced by morphine,"[3]; sulfisoxazole 500 mg/kg oral + morphine 4 mg/kg s.c., AUC",14%
"COC(=O)[C@@H]1[C@H]2C[C@H]3c4[nH]c5ccccc5c4CCN3C[C@@H]2CC[C@@H]1O [Yohimbine, 17α-hydroxy-yohimban-16α-carboxylate hydrochloride]",effect of antagonist on Clonidine potentiation of Morphine analgesia,"[1]; rats, hydrochloride",Blocked
same,effect of antagonist on Clonidine potentiation of Oxycodone analgesia,"[1]; rats, hydrochloride",Blocked
same,Ki,[5],22 nM
same,Ki,[6],21800 nM
"CN1CC[C@]23c4c5ccc(O)c4O[C@H]2[C@@H](O)C=C[C@H]3[C@H]1C5.O=S(=O)(O)O [Morphine, 7,8-didehydro-4,5α-epoxy-17-methylmorphinan-3,6α-diol sulfate]",morphine dosage in the first 24 h [median (25th-75th percentiles)],"[14]; i.v. morphine group (PCA alone, control)",37 (30.5-51) mg
same,time to extubation,[14]; i.v. morphine group,330 (300-360) min
same,morphine dosage in the first 24 h [median (25th-75th percentiles)],[14]; intrathecal morphine group (4 microg/kg plus i.v. PCA morphine),40.5 (15-61.5) mg
N=C(N)NC(=O)Cc1c(Cl)cccc1Cl [guanfacine],duration of antinociception,[8],8 h
"c1ccc2c(c1)OCC(C1=NCCN1)O2 (stereo not shown) [Idazoxan, 2-(1,4-benzodioxan-2-yl)-2-imidazoline]",effect of antagonist on Clonidine potentiation of Morphine analgesia,[1]; rats,did not affect; also recorded: No effect
same,effect of antagonist on Clonidine potentiation of Oxycodone analgesia,[1]; rats,Blocked
same,Ki,[5],3.6 nM
same,Ki,[6],186 nM
